The values that follow come from article PMC9612054, “Experimental and Computational Analysis of Newly Synthesized Benzotriazinone Sulfonamides as Alpha-Glucosidase Inhibitors” (Molecules, 2022).

Data set [1] can be described thus: Solubility (physiochemical properties). It counts as physicochemical. Particulars: solvents in which the compound is soluble.
For data set [2], the target named is alpha-glucosidase. More on the design: method as in doi:10.1007/s00044-022-02883-1. Conditions: earlier series; cited from earlier work.
Data set [3] concerns the target T1, alpha-Glucosidase (Cat No. 5003-1KU Type I) (Saccharomyces cerevisiae, UniProt P53341).
T1 construct: purchased 5003-1KU Type I
The data set is described as follows: biochemical. Conditions: for inhibition at 500 µM: pH 6.8, read-out: % Inhibition at 0.5 mM. As for the experimental part:
It actively works in the intestinal tract by inhibiting alpha-glucosidase, which is responsible for the conversion of complex carbohydrates to absorbable glucose. […] Therefore, an alpha-glucosidase inhibition assay of newly synthesized amino benzotriazinones 11a–11b and their corresponding sulfonamides 12a–12f was carried out by spectrophotometric method.
Alpha-glucosidase inhibition activity was carried out by the Pierre et al. method with slight modifications, and alpha-Glucosidase (Cat No. 5003-1KU Type I) from Saccharomyces cereviciae was utilized for the experimental protocol due to its resemblances to the structure and function of yeast/mammalian enzyme. For test, saline phosphate buffer (70 μL, 50 mM with pH 6.8), alpha-glucosidase enzyme (10 μL, 0.0234 units) and test compound (10 μL, 0.5 mM) were taken in test tubes and incubated for 10 min at 37 °C. Absorbance of these prepared samples was recorded at 400 nm. 10 μL p-nitrophenyl-alpha-D-glucopyranoside (0.5 mM, ‘substrate’, code No. N1377 from Sigma) was used to initiate the reaction and test tubes were allowed to stand for 30 min. Then, the variation in concentration of free substrate was noted by the change in absorbance. The enzyme percentage inhibition was estimated by the following formula and IC50 values were calculated by ‘EZ-Fit enzyme kinetics software. % Inhibition = [([…])/Abs. of control] × 100

T1 sequence (P53341 whole entry): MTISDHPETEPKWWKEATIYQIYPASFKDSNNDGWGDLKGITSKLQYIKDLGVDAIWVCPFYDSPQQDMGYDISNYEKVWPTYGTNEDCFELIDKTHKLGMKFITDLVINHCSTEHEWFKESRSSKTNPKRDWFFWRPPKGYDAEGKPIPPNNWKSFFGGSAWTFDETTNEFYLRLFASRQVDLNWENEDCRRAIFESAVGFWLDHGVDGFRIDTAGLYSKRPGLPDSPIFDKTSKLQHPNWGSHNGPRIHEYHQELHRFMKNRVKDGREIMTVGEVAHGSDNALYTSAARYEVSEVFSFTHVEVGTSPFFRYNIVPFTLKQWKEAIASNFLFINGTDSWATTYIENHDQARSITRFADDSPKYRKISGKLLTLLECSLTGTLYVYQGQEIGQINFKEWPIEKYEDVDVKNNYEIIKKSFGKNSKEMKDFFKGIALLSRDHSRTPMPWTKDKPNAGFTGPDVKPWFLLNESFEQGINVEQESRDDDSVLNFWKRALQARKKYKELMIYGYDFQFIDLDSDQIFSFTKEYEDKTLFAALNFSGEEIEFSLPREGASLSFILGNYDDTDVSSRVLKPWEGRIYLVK

Regarding 6-Nitroisatoic Anhydride [Compound 8], the Solubility result in data set [1] was “Ethanol, DMSO”.

In the case of `Cc1ccc(NS(=O)(=O)c2ccc(-n3nnc4ccccc4c3=O)cc2)cc1C` [Compound 4], the IC50 in data set [2] is 29.75 ± 0.14 µM.

In the case of `CCCNC(=O)c1cc([N+](=O)[O-])ccc1N` [Compound 9a, 2-Amino-5-nitro-N-propylbenzamide], the melting point fell in the range of 195 to 197 °C. Also, in data set [1], the Solubility entry is listed as “Ethanol, DMSO”.

As for `CCCCNC(=O)c1cc([N+](=O)[O-])ccc1N` [Compound 9b, 2-Amino-5-nitro-N-butylbenzamide], the melting point is 197 to 199 °C. The Solubility entry in data set [1] is “Ethanol, DMSO”.

For the compound `CCCn1nnc2ccc([N+](=O)[O-])cc2c1=O` [Compound 10a, 6-Nitro-3-propylbenzo[1,2,3]triazin-4(3H)-one], the melting point lay within 215 to 217 °C. The Solubility result in data set [1] is recorded as “Ethanol, DMSO”.

Compound `CCCCn1nnc2ccc([N+](=O)[O-])cc2c1=O` [Compound 10b, 6-Nitro-3-butylbenzo[1,2,3]triazin-4(3H)-one] came in with a melting point of 217 to 218 °C. Also, the Solubility result in data set [1] was “Ethanol, DMSO”.

`CCCn1nnc2ccc(N)cc2c1=O` [Compound 11a, 6-Amino-3-propylbenzo[1,2,3]triazin-4(3H)-one] gave a melting point of 185 to 186 °C. In addition, the inhibition at 500 µM in data set [3] was 26.12 ± 0.13%. Further, the Solubility entry in data set [1] is “Methanol, DMSO”.

In turn, `CCCCn1nnc2ccc(N)cc2c1=O` [Compound 11b, 6-Amino-3-butylbenzo[1,2,3]triazin-4(3H)-one] had a melting point of 191 to 192 °C. In data set [3], the inhibition at 500 µM amounted to 27.12 ± 0.13%. Moreover, the Solubility result in data set [1] is “Methanol, DMSO”.

For `CCCn1nnc2ccc(NS(=O)(=O)c3ccccc3)cc2c1=O` [Compound 12a, N-(4-Oxo-3-propyl-3,4-dihydrobenzo[1,2,3]triazin-6-yl)benzenesulfonamide], the melting point was 171 to 173 °C. For the same compound, the inhibition at 500 µM in data set [3] came out at 51.25 ± 0.16%. Further, in data set [1], the Solubility result is reported as “Ethanol, DMSO”.

With `CCCn1nnc2ccc(NS(=O)(=O)c3ccc(OC)cc3)cc2c1=O` [Compound 12b, 4-Methoxy-N-(4-oxo-3-propyl-3,4-dihydrobenzo[1,2,3]triazin-6-yl)benzenesulfonmide], the melting point fell in the range of 175 to 177 °C. Further, in data set [3], inhibition was half-maximal at 39.21 ± 0.12 µM (IC50) and the inhibition at 500 µM amounted to 91.73 ± 0.17%. In data set [1], the Solubility result is listed as “Ethanol, DMSO”.

`CCCn1nnc2ccc(NS(=O)(=O)c3ccc(Cl)cc3)cc2c1=O` [Compound 12c, 4-Chloro-N-(4-oxo-3-propyl-3,4-dihydrobenzo[1,2,3]triazin-6-yl)benzenesulfonamide]: the melting point was 169 to 171 °C. Also, in data set [3], half-maximal inhibition (IC50) was put at 53.76 ± 0.14 µM and the inhibition at 500 µM came to 78.12 ± 0.16%. Moreover, in data set [1], the Solubility result was “Ethanol, DMSO”.

Regarding `CCCn1nnc2ccc(NS(=O)(=O)c3ccc(Br)cc3)cc2c1=O` [Compound 12d, 4-Bromo-N-(4-oxo-3-propyl-3,4-dihydrobenzo[1,2,3]triazin-6-yl)benzenesulfonamide], in data set [3], it took 55.21 ± 0.12 µM to reach half-maximal inhibition (IC50) and the inhibition at 500 µM was 79.42 ± 0.15%. Besides, in data set [1], the Solubility result is “Ethanol, DMSO”.

In turn, `CCCn1nnc2ccc(NS(=O)(=O)c3ccc([N+](=O)[O-])cc3)cc2c1=O` [Compound 12e, 4-Nitro-N-(4-oxo-3-propyl-3,4-dihydrobenzo[1,2,3]triazin-6-yl)benzenesulfonamide] had a melting point of 167 to 169 °C. Also, in data set [3], the IC50 turned out to be 32.37 ± 0.15 µM and the inhibition at 500 µM was determined as 96.27 ± 0.19%. In addition, in data set [1], the Solubility entry was “Ethanol, DMSO”.

As for `CCCCn1nnc2ccc(NS(=O)(=O)c3ccc([N+](=O)[O-])cc3)cc2c1=O` [Compound 12f, 4-Nitro-N-(4-oxo-3-butyl-3,4-dihydrobenzo[1,2,3]triazin-6 yl)benzenesulfonamide], the melting point fell in the range of 179 to 181 °C. For the same compound, in data set [3], the IC50 is 37.75 ± 0.11 µM and the inhibition at 500 µM is 93.27 ± 0.14%. Also, the Solubility result in data set [1] is on record as “Ethanol, DMSO”.

Regarding `C[C@H]1O[C@H](O[C@H]2[C@H](O)[C@@H](O)[C@@H](O[C@H]3[C@H](O)[C@@H](O)C(O)O[C@@H]3CO)O[C@@H]2CO)[C@H](O)[C@@H](O)[C@@H]1N[C@H]1C=C(CO)[C@@H](O)[C@H](O)[C@H]1O` (stereo partly shown) [acarbose, reference compound], the “% Inhibition at 0.5 mM” value in data set [3] (test compound 0.5 mM, pH 6.8, 37 °C) stood at 92.23 ± 0.16%.

For the compound Isatoic Anhydride [Compound 7], the Solubility entry in data set [1] is “Ethanol, DMSO”.

As a reminder, the IC50 is the concentration at which inhibition is half-maximal. As usually defined, the melting point is the temperature, or range, at which the solid turns liquid. The inhibition is the change of the read-out against control, counted positive when it falls. In general, % Inhibition refers to how much of the control response was suppressed. A low value points to little suppression.
